This note sets out measurements from PubChem BioAssay (NCI).

Among the test systems are NCI-H460 lung; UO-31 renal; OVCAR-4 ovarian; SR leukemia; MALME-3M melanoma; HCT-116 colon; COLO 205 colon; HS 578T breast; SK-OV-3 ovarian; MOLT-4 leukemia; TK-10 renal; RXF 393 renal; SN12C renal; MCF7 breast; SW-620 colon; CCRF-CEM leukemia; OVCAR-8 ovarian.
Common to all, as to test: inhibition of tumour cell growth, NCI panel, 48 h

The structures appear in SMILES notation. “And” between values parts separate entries of the source, which are not always exact repeats. Identical values can stand only once.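 48-hour exposure; five concentrations; linearly interpolated endpoints. GI50 is the concentration that inhibits growth by half. TGI: concentration producing complete growth inhibition.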

As to `OC(CC(O)(C(F)(F)F)C(F)(F)F)C(O)c1ccco1` (stereo not given), the TGI with NCI-H460 lung, in the test with UO-31 renal, in the test on OVCAR-4 ovarian, with SR leukemia, with MALME-3M melanoma and in the test on HCT-116 colon was greater than 10 µM in each case. The TGI with COLO 205 colon, in the test with HS 578T breast, in the test on SK-OV-3 ovarian, in the test on MOLT-4 leukemia, with TK-10 renal and with RXF 393 renal was greater than 10 µM in each case. Further, the TGI in the test with SN12C renal, in the test with MCF7 breast, with SW-620 colon, with CCRF-CEM leukemia and in the test with OVCAR-8 ovarian was greater than 10 µM throughout.
Take `Cc1cn(C2CC(NC(=NCC3OC(n4cnc5c(N)ncnc54)CC3O)NC#N)C(CO)O2)c(=O)[nH]c1=O` (stereo not given): the TGI in the test with NCI-H460 lung, in the test with UO-31 renal, with OVCAR-4 ovarian, in the test on SR leukemia, with MALME-3M melanoma and with HCT-116 colon was greater than 100 µM throughout. In addition, the TGI in the test on COLO 205 colon, in the test on HS 578T breast, in the test on SK-OV-3 ovarian, in the test with MOLT-4 leukemia, in the test with TK-10 renal and in the test on RXF 393 renal was greater than 100 µM in each case. Moreover, the TGI in the test on SN12C renal, in the test with MCF7 breast, in the test with SW-620 colon, in the test with CCRF-CEM leukemia and in the test with OVCAR-8 ovarian was greater than 100 µM throughout.
For `O=C(O)c1ccc(NNC(=O)c2cccc3c(=O)c4ccccc4[nH]c23)cc1`, the TGI in the test on NCI-H460 lung, in the test with UO-31 renal, in the test on OVCAR-4 ovarian, in the test with SR leukemia, in the test on MALME-3M melanoma and with HCT-116 colon was greater than 100 µM throughout. In addition, the TGI in the test on COLO 205 colon, with HS 578T breast, with SK-OV-3 ovarian, in the test on MOLT-4 leukemia, in the test with TK-10 renal and with RXF 393 renal was greater than 100 µM in each case. In addition, the TGI in the test on SN12C renal, with MCF7 breast, with SW-620 colon, with CCRF-CEM leukemia and in the test on OVCAR-8 ovarian was greater than 100 µM in each case.
Turning to `COc1cccc(Nc2nc(N)nc(N)c2N=O)c1`, the TGI with NCI-H460 lung was 29.1 µM; in the test with UO-31 renal, 38.1 µM; in the test with OVCAR-4 ovarian, 78.5 µM; in the test with SR leukemia, 45.5 µM; with MALME-3M melanoma, greater than 100 µM; with HCT-116 colon, 38.2 µM. In addition, the TGI in the test on COLO 205 colon was 51.9 µM; in the test on HS 578T breast, 82.4 µM; in the test on SK-OV-3 ovarian it was greater than 100 µM; in the test with MOLT-4 leukemia, 41.8 µM; in the test with TK-10 renal, 60.5 µM; in the test on RXF 393 renal, greater than 100 µM. The TGI with SN12C renal was greater than 100 µM; in the test on MCF7 breast, greater than 100 µM; in the test with SW-620 colon, greater than 100 µM; with CCRF-CEM leukemia, 93.4 µM; in the test on OVCAR-8 ovarian it was 40.9 µM.
With `CN(C)CCCN1c2ccccc2CCc2cc([N+](=O)[O-])ccc21`, the TGI in the test with NCI-H460 lung is 41.7 µM and 29.8 µM; with UO-31 renal, 70.8 µM and 28.7 µM; in the test on OVCAR-4 ovarian, 69.5 µM and 40.5 µM; with SR leukemia, 90.6 µM and 44 µM; with MALME-3M melanoma it was 33.8 µM and 32.9 µM; with HCT-116 colon it was 41 µM and 29.7 µM. Further, the TGI in the test on COLO 205 colon is 60.1 µM and 32.4 µM; in the test with HS 578T breast, 71.9 µM and 34.3 µM; in the test on SK-OV-3 ovarian it was > 100 µM and 32.6 µM; in the test with MOLT-4 leukemia, > 100 µM and 35.9 µM; in the test on TK-10 renal it was 69 µM and 27.8 µM; with RXF 393 renal, 32.8 µM and 26 µM. Moreover, the TGI was 60.9 µM and 30.4 µM with SN12C renal; 79 µM and 31.8 µM with MCF7 breast; > 100 µM and 32.6 µM in the test with SW-620 colon; > 100 µM and 27 µM in the test with CCRF-CEM leukemia; 71.8 µM and 30 µM in the test on OVCAR-8 ovarian. For the same compound, the GI50 in the test on SK-OV-3 ovarian is 38.7 µM and 17.3 µM; with SW-620 colon, 37.2 µM and 16.3 µM; in the test on CCRF-CEM leukemia it was 43.8 µM and 10.7 µM.
For the compound `CCO/C=C(\C(=O)OC)S(=O)(=O)c1ccc(C)cc1`, the TGI with NCI-H460 lung, in the test with UO-31 renal, in the test on OVCAR-4 ovarian, in the test on SR leukemia, in the test with MALME-3M melanoma and with HCT-116 colon was greater than 100 µM throughout. Further, the TGI in the test on COLO 205 colon, in the test with HS 578T breast, in the test on SK-OV-3 ovarian, in the test with MOLT-4 leukemia, in the test on TK-10 renal and in the test on RXF 393 renal was greater than 100 µM each time. The TGI in the test on SN12C renal, in the test with MCF7 breast, in the test with SW-620 colon, with CCRF-CEM leukemia and in the test on OVCAR-8 ovarian was greater than 100 µM each time.
For the compound `Cc1ccc(/C=N/NS(=O)(=O)c2ccc(/C=C3\NC(=O)NC3=O)cc2)cc1`, the TGI with NCI-H460 lung, in the test with UO-31 renal, in the test on OVCAR-4 ovarian, in the test on SR leukemia, in the test with MALME-3M melanoma and in the test with HCT-116 colon was greater than 100 µM each time. Moreover, the TGI is greater than 100 µM with COLO 205 colon; 81.6 µM in the test with HS 578T breast; greater than 100 µM in the test with SK-OV-3 ovarian; greater than 100 µM with MOLT-4 leukemia; greater than 100 µM in the test with TK-10 renal; greater than 100 µM with RXF 393 renal. Moreover, the TGI in the test with SN12C renal, in the test with MCF7 breast, with SW-620 colon, in the test with CCRF-CEM leukemia and in the test on OVCAR-8 ovarian was greater than 100 µM throughout.
As for `CCOP(=O)(OCC)C(F)(F)Cc1cnc(C)c2c1COC(C)(C)O2`, the TGI with NCI-H460 lung, in the test with UO-31 renal, with OVCAR-4 ovarian, in the test on SR leukemia, in the test on MALME-3M melanoma and in the test with HCT-116 colon was greater than 10 µM each time. Moreover, the TGI with COLO 205 colon, in the test on HS 578T breast, in the test on SK-OV-3 ovarian, in the test on MOLT-4 leukemia, with TK-10 renal and with RXF 393 renal was greater than 10 µM throughout. Further, the TGI in the test with SN12C renal, with MCF7 breast, in the test with SW-620 colon, in the test with CCRF-CEM leukemia and in the test on OVCAR-8 ovarian was greater than 10 µM throughout.
Take `O=c1c(=[n+]2ccc(=C([O-])c3ccccc3)cc2)/c(=N/S(=O)(=O)c2ccccc2)c(=O)c2ccccc12`: the TGI in the test on NCI-H460 lung turned out to be 36.2 µM; in the test on UO-31 renal, 23.9 µM; with OVCAR-4 ovarian, 25.9 µM; in the test with SR leukemia, 13.4 µM; with MALME-3M melanoma, 16.9 µM; with HCT-116 colon it was 23.5 µM. The TGI came to 27.2 µM with COLO 205 colon; 18.7 µM in the test with HS 578T breast; 29.2 µM in the test on SK-OV-3 ovarian; 14.8 µM with MOLT-4 leukemia; 32.2 µM with TK-10 renal; 25.2 µM with RXF 393 renal. Also, the TGI in the test on SN12C renal turned out to be 19 µM; with MCF7 breast, 25.7 µM; in the test with SW-620 colon, 22 µM; in the test with CCRF-CEM leukemia, 6.11 µM; in the test with OVCAR-8 ovarian it was 26.7 µM.
For the compound `Fc1ccc2c3c([nH]c2c1)CCNC3`, the TGI with NCI-H460 lung is greater than 100 µM; in the test with UO-31 renal, 99.7 µM; in the test with OVCAR-4 ovarian it was greater than 100 µM; with SR leukemia, greater than 100 µM; in the test with MALME-3M melanoma, greater than 100 µM; with HCT-116 colon it was greater than 100 µM. Moreover, the TGI with COLO 205 colon, with HS 578T breast, with SK-OV-3 ovarian, in the test with MOLT-4 leukemia, with TK-10 renal and in the test on RXF 393 renal was greater than 100 µM throughout. The TGI in the test with SN12C renal, with MCF7 breast, in the test with SW-620 colon, in the test with CCRF-CEM leukemia and in the test with OVCAR-8 ovarian was greater than 100 µM throughout.
In the case of `CCOC(=O)c1cc(Br)c(-c2onc(C)c2Br)n1C`, the TGI in the test with NCI-H460 lung is greater than 100 µM; in the test with UO-31 renal, greater than 100 µM; in the test on OVCAR-4 ovarian it was greater than 100 µM; in the test on SR leukemia, 92.9 µM; in the test with MALME-3M melanoma it was greater than 100 µM; in the test on HCT-116 colon it was 41.6 µM. The TGI in the test on COLO 205 colon was 85.7 µM; with HS 578T breast it was greater than 100 µM; with SK-OV-3 ovarian it was 59.8 µM; in the test on MOLT-4 leukemia, 44.3 µM; in the test with TK-10 renal, greater than 100 µM; in the test on RXF 393 renal it was 28.6 µM. For the same compound, the TGI in the test on SN12C renal is 56.8 µM; in the test on MCF7 breast, 77.5 µM; in the test on SW-620 colon, greater than 100 µM; with CCRF-CEM leukemia, greater than 100 µM; in the test with OVCAR-8 ovarian it was greater than 100 µM.
